Literature values in patent publication US20230190668A1, “SLOW-RELEASE MEDICAL PLASTER” (FIDIA FARMACEUTICI S.P.A., priority 2020, published 2023).
Where a name gives a salt, the structure may show the parent alone. Read-outs that look alike come from different tables or passages of the source.

Conditions: same matrix, active ingredient amount and excipients, 24 hours, without BHA

Structure (SMILES) | release from medical plaster with PSA matrix of Eudragit NE40 and citric acid ester | release from medical plaster with PSA matrix of Eudragit NE40 and citric acid ester (sodium salt)
O=C(O)Cc1ccccc1Nc1c(Cl)cccc1Cl [diclofenac DEA salt, diclofenac diethylammonium salt] | released in a constant, continuous, prolonged and therapeutically effective way for 24 hours | 
O=C(O)Cc1ccccc1Nc1c(Cl)cccc1Cl [diclofenac sodium salt] |  | released in a minimal way
